According to patent US12545680B2, “Substituted oxaspiro[4.5]decanes as mor receptor agonists” (SHANGHAI HAIYAN PHARMACEUTICAL TECHNOLOGY CO., LTD., priority 2020, dated 2026):
Read-outs that look alike come from different tables or passages of the source.

Legend:
MOR receptor (OPRM1) [1] = target: T1, MOR receptor (OPRM1) (Homo sapiens, UniProt P35372); test: HTRF-cAMP cell experiment; settings: for cAMP Emax (%) Morphine was 100% / EC50: PathHunter CHO-K1 OPRM1 β-Arrestin cell line; for cAMP Emax (%) Morphine was 100% / Emax: maximum effect relative to morphine = 100%; for EC50: NKH477-stimulated cAMP, HTRF; for Emax: read-out: cAMP Emax (%) Morphine was 100%, PathHunter CHO-K1 OPRM1 β-Arrestin cell line
T1 sequence (P35372 whole entry): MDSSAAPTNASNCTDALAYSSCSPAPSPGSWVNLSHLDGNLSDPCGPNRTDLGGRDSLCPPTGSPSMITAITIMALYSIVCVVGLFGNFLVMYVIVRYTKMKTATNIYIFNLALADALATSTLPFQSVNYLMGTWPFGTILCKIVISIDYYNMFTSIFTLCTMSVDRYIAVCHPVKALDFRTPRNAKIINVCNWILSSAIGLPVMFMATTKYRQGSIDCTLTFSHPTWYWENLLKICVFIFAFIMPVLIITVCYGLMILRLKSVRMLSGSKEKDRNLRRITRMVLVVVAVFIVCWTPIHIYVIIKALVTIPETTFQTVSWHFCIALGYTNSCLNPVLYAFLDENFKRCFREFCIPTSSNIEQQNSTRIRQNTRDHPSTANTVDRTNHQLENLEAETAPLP

MOR receptor (OPRM1) [2] = target: T1, MOR receptor (OPRM1); test: β-Arrestin cell experiment; settings: maximum effect relative to morphine = 100%; for β-arrestin Emax (%) Morphine was 100%: PathHunter CHO-K1 OPRM1 β-Arrestin cell line; for Emax: read-out: β-arrestin Emax (%) Morphine was 100%, PathHunter CHO-K1 OPRM1 β-Arrestin cell line

Row | SMILES | cAMP Emax (%) Morphine was 100% (MOR receptor (OPRM1) [1]) | EC50 (MOR receptor (OPRM1) [1]; cAMP EC50 (nM)) | β-arrestin Emax (%) Morphine was 100% (MOR receptor (OPRM1) [2]) | Emax (MOR receptor (OPRM1) [2]) | EC50 (MOR receptor (OPRM1) [1]; read-out: cAMP EC50) | Emax (MOR receptor (OPRM1) [1])
1 | CCC1CC(NCC[C@@]2(c3ccccn3)CCOC3(CCCC3)C2)c2ccnn21 (mixture of isomers) [Compound H-4-1, 6-ethyl-N-(2-((R)-9-(pyridin-2-yl)-6-oxaspiro[4.5]decan-9-yl)ethyl)-5,6-dihydro-4H-pyrrolo[1,2-b]pyrazol-4-amine] | 64.1% | 8 nM | 1.8% |  |  | 
2 | CCC1CC(NCC[C@@]2(c3ccccn3)CCOC3(CCCC3)C2)c2ccnn21 (mixture of isomers) [Compound H-4-2, 6-ethyl-N-(2-((R)-9-(pyridin-2-yl)-6-oxaspiro[4.5]decan-9-yl)ethyl)-5,6-dihydro-4H-pyrrolo[1,2-b]pyrazol-4-amine] | 91.8% | 18 nM | 4.8% |  |  | 
3 | CC1CC(NCC[C@@]2(c3ccccn3)CCOC3(CCCC3)C2)c2ccnn21 (mixture of isomers) [Compound H-12-1, 6-methyl-N-(2-((R)-9-(pyridin-2-yl)-6-oxaspiro[4.5]decan-9-yl)ethyl)-5,6-dihydro-4H-pyrrolo[1,2-b]pyrazol-4-amine] | 99.5% | 12 nM |  | 12% |  | 
4 | CC1CC(NCC[C@@]2(c3ccccn3)CCOC3(CCCC3)C2)c2ccnn21 (mixture of isomers) [Compound H-12-2, 6-methyl-N-(2-((R)-9-(pyridin-2-yl)-6-oxaspiro[4.5]decan-9-yl)ethyl)-5,6-dihydro-4H-pyrrolo[1,2-b]pyrazol-4-amine] | 77.8% |  | 15.7% |  | 12 nM | 
5 | c1ccc([C@]2(CCNC3CCn4nccc43)CCOC3(CCCC3)C2)nc1 (stereo partly drawn) [Compound H-1, N-(2-((R)-9-(pyridin-2-yl)-6-oxaspiro[4.5]decan-9-yl)ethyl)-5,6-dihydro-4H-pyrrolo[1,2-b]pyrazol-4-amine] |  | 49 nM |  | 29.7% |  | 125%
6 | COC(C)(C)C1CC(NCC[C@@]2(c3ccccn3)CCOC3(CCCC3)C2)c2ccnn21 (stereo partly drawn) [Compound H-2, 6-(2-methoxypropan-2-yl)-N-(2-((R)-9-(pyridin-2-yl)-6-oxaspiro[4.5]decan-9-yl)ethyl)-5,6-dihydro-4H-pyrrolo[1,2-b]pyrazol-4-amine] |  | 47 nM |  | 6.2% |  | 93.2%
7 | c1ccc([C@]2(CCNC3CC(C4CC4)n4nccc43)CCOC3(CCCC3)C2)nc1 (stereo partly drawn) [Compound H-3, 6-cyclopropyl-N-(2-((R)-9-(pyridin-2-yl)-6-oxaspiro[4.5]decan-9-yl)ethyl)-5,6-dihydro-4H-pyrrolo[1,2-b]pyrazol-4-amine] |  | 17 nM |  | 4.9% |  | 74.6%
8 | c1ccc([C@]2(CCNC3CC(C4CCCC4)n4nccc43)CCOC3(CCCC3)C2)nc1 (stereo partly drawn) [Compound H-5, 6-cyclopentyl-N-(2-((R)-9-(pyridin-2-yl)-6-oxaspiro[4.5]decan-9-yl)ethyl)-5,6-dihydro-4H-pyrrolo[1,2-b]pyrazol-4-amine] |  |  |  | 4.8% |  | 
9 | CC(C)(C)C1CC(NCC[C@@]2(c3ccccn3)CCOC3(CCCC3)C2)c2ccnn21 (stereo partly drawn) [Compound H-6, 6-tert-butyl-N-(2-((R)-9-(pyridin-2-yl)-6-oxaspiro[4.5]decan-9-yl)ethyl)-5,6-dihydro-4H-pyrrolo[1,2-b]pyrazol-4-amine] |  | 9 nM |  | 15.3% |  | 99.6%
10 | CC(C)(F)C1CC(NCC[C@@]2(c3ccccn3)CCOC3(CCCC3)C2)c2ccnn21 (stereo partly drawn) [Compound H-7, 6-(2-fluoropropan-2-yl)-N-(2-((R)-9-(pyridin-2-yl)-6-oxaspiro[4.5]decan-9-yl)ethyl)-5,6-dihydro-4H-pyrrolo[1,2-b]pyrazol-4-amine] |  | 29 nM |  | 22.1% |  | 105%
11 | CC(C)C1CC(NCC[C@@]2(c3ccccn3)CCOC3(CCCC3)C2)c2c(F)cnn21 (stereo partly drawn) [Compound H-9, 3-fluoro-6-isopropyl-N-(2-((R)-9-(pyridin-2-yl)-6-oxaspiro[4.5]decan-9-yl)ethyl)-5,6-dihydro-4H-pyrrolo[1,2-b]pyrazol-4-amine] |  |  |  | 1% |  | 
12 | CC1(C2CC(NCC[C@@]3(c4ccccn4)CCOC4(CCCC4)C3)c3ccnn32)CC1 (stereo partly drawn) [Compound H-10, 6-(1-methylcyclopropyl)-N-(2-((R)-9-(pyridin-2-yl)-6-oxaspiro[4.5]decan-9-yl)ethyl)-5,6-dihydro-4H-pyrrolo[1,2-b]pyrazol-4-amine] |  | 11 nM |  | 5.1% |  | 74.7%
13 | CC(C)C1CC(NCC[C@@]2(c3ccccn3)CCOC3(CCCC3)C2)c2ccnn21 (stereo partly drawn) [Compound H-11, 6-(isopropyl)-N-(2-((R)-9-(pyridin-2-yl)-6-oxaspiro[4.5]decan-9-yl)ethyl)-5,6-dihydro-4H-pyrrolo[1,2-b]pyrazol-4-amine] |  | 15 nM |  | 4.3% |  | 84.8%
14 | CCCC1CC(NCC[C@@]2(c3ccccn3)CCOC3(CCCC3)C2)c2ccnn21 (stereo partly drawn) [Compound H-14, 6-propyl-N-(2-((R)-9-(pyridin-2-yl)-6-oxaspiro[4.5]decan-9-yl)ethyl)-5,6-dihydro-4H-pyrrolo[1,2-b]pyrazol-4-amine] |  | 31 nM |  | 7.2% |  | 73%
15 | CCC(C)C1CC(NCC[C@@]2(c3ccccn3)CCOC3(CCCC3)C2)c2ccnn21 (stereo partly drawn) [Compound H-15, 6-(sec-butyl)-N-(2-((R)-9-(pyridin-2-yl)-6-oxaspiro[4.5]decan-9-yl)ethyl)-5,6-dihydro-4H-pyrrolo[1,2-b]pyrazol-4-amine] |  | 84 nM |  |  |  | 64.9%
16 | FC(F)(F)C1(C2CC(NCC[C@@]3(c4ccccn4)CCOC4(CCCC4)C3)c3ccnn32)CC1 (stereo partly drawn) [Compound H-17, N-(2-((R)-9-(pyridin-2-yl)-6-oxaspiro[4.5]decan-9-yl)ethyl)-6-(1-(trifluoromethyl)cyclopropyl)-5,6-dihydro-4H-pyrrolo[1,2-b]pyrazol-4-amine] |  | 31 nM |  | 2.6% |  | 68.6%
17 | CC(C)(C1CC(NCC[C@@]2(c3ccccn3)CCOC3(CCCC3)C2)c2ccnn21)C(F)(F)F (stereo partly drawn) [Compound H-18, N-(2-((R)-9-(pyridin-2-yl)-6-oxaspiro[4.5]decan-9-yl)ethyl)-6-(1,1,1,-trifluoro-2-methylprop-2-yl)-5,6-dihydro-4H-pyrrolo[1,2-b]pyrazol-4-amine] | 89.1% |  |  |  | 68 nM | 
18 | c1ccc([C@]2(CCNC3CC4(CCCC4)n4nccc43)CCOC3(CCCC3)C2)nc1 (stereo partly drawn) [Compound H-19, N-(2-((R)-9-(pyridin-2-yl)-6-oxaspiro[4.5]decan-9-yl)ethyl)-4′,5′-dihydrospiro[cyclopentane-1,6′-pyrrolo[1,2-b]pyrazol]-4′-amine] |  | 21 nM |  | 17.3% |  | 94.1%
19 | c1ccc([C@]2(CCNC3CC4(CCOCC4)n4nccc43)CCOC3(CCCC3)C2)nc1 (stereo partly drawn) [Compound H-20, N-(2-((R)-9-(pyridin-2-yl)-6-oxaspiro[4.5]decan-9-yl)ethyl)-2,3,4′,5,5′,6-hexahydrospiro[pyran-4,6′-pyrrolo[1,2-b]pyrazol]-4′-amine] |  | 4 nM |  |  |  | 107%
20 | c1ccc([C@]2(CCNC3CC4(CCC4)n4nccc43)CCOC3(CCCC3)C2)nc1 (stereo partly drawn) [Compound H-21, N-(2-((R)-9-(pyridin-2-yl)-6-oxaspiro[4.5]decan-9-yl)ethyl)-4′,5′-dihydrospiro[cyclobutane-1,6′-pyrrolo[1,2-b]pyrazol]-4′-amine] |  | 22 nM |  | 8% |  | 70.8%
21 | CC1(C)CC(NCC[C@@]2(c3ccccn3)CCOC3(CCCC3)C2)c2ccnn21 (stereo partly drawn) [Compound H-22, 6,6-dimethyl-N-(2-((R)-9-(pyridin-2-yl)-6-oxaspiro[4.5]decan-9-yl)ethyl)-5,6-dihydro-4H-pyrrolo[1,2-b]pyrazol-4-amine] |  | 11 nM |  | 39.9% |  | 104%
